pIC50: −log10 of the molar value.
Tests used:
[1] = target: T1, TNKS1 (Homo sapiens, UniProt O95271); assay: Modified TNKS1 Assay 2 (auto-parsylation, [3H]-NAD+ SPA); type: biochemical; conditions: 6 nM TNKS1, 96 well
T1 sequence (O95271 1-1327): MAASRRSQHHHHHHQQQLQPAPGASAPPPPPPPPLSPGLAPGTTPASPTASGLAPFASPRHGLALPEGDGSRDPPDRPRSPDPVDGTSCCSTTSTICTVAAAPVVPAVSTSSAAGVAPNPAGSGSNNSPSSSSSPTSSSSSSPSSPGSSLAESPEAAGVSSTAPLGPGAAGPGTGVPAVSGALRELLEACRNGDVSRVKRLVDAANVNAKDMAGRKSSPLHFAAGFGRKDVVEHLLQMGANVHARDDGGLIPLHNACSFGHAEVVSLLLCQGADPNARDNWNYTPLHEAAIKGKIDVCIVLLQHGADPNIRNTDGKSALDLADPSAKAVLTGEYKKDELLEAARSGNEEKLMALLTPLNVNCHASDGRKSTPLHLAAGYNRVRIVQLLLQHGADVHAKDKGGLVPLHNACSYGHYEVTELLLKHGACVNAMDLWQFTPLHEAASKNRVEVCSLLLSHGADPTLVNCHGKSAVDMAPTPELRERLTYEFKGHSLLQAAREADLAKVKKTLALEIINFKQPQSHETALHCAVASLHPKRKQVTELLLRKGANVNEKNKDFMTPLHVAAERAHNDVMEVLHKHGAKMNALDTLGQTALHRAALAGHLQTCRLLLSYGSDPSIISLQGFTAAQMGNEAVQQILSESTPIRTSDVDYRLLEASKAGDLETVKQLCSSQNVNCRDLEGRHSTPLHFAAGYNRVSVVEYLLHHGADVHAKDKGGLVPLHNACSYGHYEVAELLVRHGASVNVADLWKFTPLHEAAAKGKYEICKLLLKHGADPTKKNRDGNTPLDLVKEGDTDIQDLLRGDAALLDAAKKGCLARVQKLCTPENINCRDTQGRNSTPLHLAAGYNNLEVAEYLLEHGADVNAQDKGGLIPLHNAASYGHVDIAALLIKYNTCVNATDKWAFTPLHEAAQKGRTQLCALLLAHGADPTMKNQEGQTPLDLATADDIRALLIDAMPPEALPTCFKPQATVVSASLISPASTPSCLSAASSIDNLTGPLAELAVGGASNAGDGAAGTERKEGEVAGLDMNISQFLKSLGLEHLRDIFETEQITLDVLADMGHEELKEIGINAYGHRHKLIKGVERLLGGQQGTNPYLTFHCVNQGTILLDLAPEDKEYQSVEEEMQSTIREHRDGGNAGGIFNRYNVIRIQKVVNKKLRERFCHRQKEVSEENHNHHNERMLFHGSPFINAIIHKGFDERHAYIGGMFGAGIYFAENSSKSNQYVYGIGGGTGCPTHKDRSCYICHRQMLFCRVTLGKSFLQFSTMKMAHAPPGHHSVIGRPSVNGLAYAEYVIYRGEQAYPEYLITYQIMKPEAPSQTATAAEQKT

[2] = system: HEK293 FOP control reporter cell line; assay: HEK293 FOP Assay (FOP control vector luciferase reporter); type: cell-based; conditions: Homo sapiens
Method in brief: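 Stable HEK293 line carrying the FOP vector (randomized, non-functional TCF sites; Geneticin-selected) was run in parallel with the TOP line. Cells were plated 24 h ahead at 10000/well and given recombinant human Wnt-3a at 2500–5 ng/ml. Compounds were tested at 50 μM–15 nM (3.16-fold steps) in CAFTY buffer, pH 7.4, with 2 mM Ca2+ and 0.01% BSA.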

[3] = HEK293 FOP control reporter cell line, 16 hours incubation, compound dilution series 50 μM to 15 nM
[4] = HEK293 FOP control reporter cells, 16 hours, luciferase, dilution series from 50 μM

| Compound | pIC50 [1] | pIC50 [2, 3] | pIC50 [2, 4] |
| --- | --- | --- | --- |
| O=C(Nc1ccc(NC(=O)c2[nH]cnc2C(=O)NCCC2CCCC2)cc1)c1cc(F)c(F)cc1Cl [Example 48, N^5-{4-[(2-chloro-4,5-difluorobenzoyl)amino]phenyl}-N^4-(2-cyclopentylethyl)-1H-imidazole-4,5-dicarboxamide] | < 5.00 | 4.77 |  |
| O=C(Nc1ccc(NC(=O)c2[nH]cnc2C(=O)NCCN2CCCCC2)cc1)c1ccc(F)cc1Cl [Example 32, N^4-{4-[(2-chloro-4-fluorobenzoyl)amino]phenyl}-N^5-[2-(piperidin-1-yl)ethyl]-1H-imidazole-4,5-dicarboxamide] | 8.05 | 4.52 | 4.38 |
| Cc1nc(C(=O)Nc2ccc(NC(=O)c3ccc(F)cc3Cl)cc2)c(C(=O)NCCN2CCCCC2)[nH]1 [Example 67, N^4-{4-[(2-chloro-4-fluorobenzoyl)amino]phenyl}-2-methyl-N^5-[2-(piperidin-1-yl)ethyl]-1H-imidazole-4,5-dicarboxamide] | 8.40 | 4.89 |  |
| CN(C)CCNC(=O)c1nc[nH]c1C(=O)Nc1ccc(NC(=O)c2ccc(F)cc2Cl)cc1 [Example 22, N^4-{4-[(2-chloro-4-fluorobenzoyl)amino]phenyl}-N^5-[2-(dimethylamino)ethyl]-1H-imidazole-4,5-dicarboxamide] | 8.00 |  | ≤ 4.30 |

From patent US9884063B2, “Amido-substituted azole compounds” (Bayer Pharma Aktiengesellschaft, priority 2014, dated 2018)
